# Results from ChEMBL document CHEMBL1201862, “PubChem BioAssay data set” (2004).
#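 These data come from cells grown in 96-well plates and exposed to compound for 48 hours at five concentrations. The concentration for 50% growth inhibition is given as GI50.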 Calls of active or inactive are those of the source. Rule as the data show it: active = GI50 up to about 1.1 µM and inactive = higher.
# Columns and labels:
# Experiment in all cases: inhibition of tumour cell growth, NCI panel, 48 h
# [1] = tested on: NCI-H226
# [2] = tested on: UACC-257
# [3] = tested on: HCT-116
# [4] = tested on: Malme-3M
# [5] = tested on: A549
# [6] = tested on: UO-31
# [7] = tested on: A498
# [8] = tested on: HOP-92
# [9] = tested on: MOLT-4
# [10] = tested on: HT-29
# [11] = tested on: IGROV-1
# [12] = tested on: MCF7
# [13] = tested on: RPMI-8226
# [14] = tested on: SK-MEL-28
# [15] = tested on: CAKI-1
# [16] = tested on: HCT-15
# [17] = tested on: SW-620
# [18] = tested on: T47D
# [19] = tested on: MDA-MB-231
# [20] = tested on: OVCAR-5
# [21] = tested on: BT-549
# [22] = tested on: SNB-75
# [23] = tested on: PC-3
# [24] = tested on: Hs-578T
# [25] = tested on: NCI-H23
# [26] = tested on: MDA-N
# [27] = tested on: LOX IMVI
# [28] = tested on: U-251
# [29] = tested on: HOP-62
# [30] = tested on: 786-0
# [31] = tested on: TK-10
# [32] = tested on: SF-539
# [33] = tested on: OVCAR-3
# [34] = tested on: SF-295
# [35] = tested on: SNB-19
# [36] = tested on: OVCAR-4
# [37] = tested on: OVCAR-8
# [38] = tested on: SK-OV-3
# [39] = tested on: SR
# [40] = tested on: HL-60
# [41] = tested on: ACHN
# [42] = tested on: KM12
# [43] = tested on: SF-268
# [44] = tested on: SK-MEL-5
# [45] = tested on: K562
# [46] = tested on: EKVX
# [47] = tested on: NCI/ADR-RES
# [48] = tested on: UACC-62
# [49] = tested on: MDA-MB-435
# [50] = tested on: SK-MEL-2
# [51] = tested on: NCI-H522
# [52] = tested on: NCI-H460
# [53] = tested on: M14
# [54] = tested on: COLO 205
# [55] = tested on: SN12C
# [56] = tested on: DU-145
# [57] = tested on: RXF 393
# [58] = tested on: CCRF-CEM
# [59] = tested on: HCC 2998
smiles,measurement,setting,value
CC1CN(CCO)CCN1c1ccccc1 (configuration not stated),GI50,[1],> 100 µM (inactive)
same,GI50,[2],> 100 µM (inactive)
same,GI50,[3],> 100 µM (inactive)
same,GI50,[4],> 100 µM (inactive)
same,GI50,[5],> 100 µM (inactive)
same,GI50,[6],> 100 µM (inactive)
same,GI50,[7],> 100 µM (inactive)
same,GI50,[8],> 100 µM (inactive)
same,GI50,[9],1.41 µM (inactive)
same,GI50,[10],> 100 µM (inactive)
same,GI50,[11],> 100 µM (inactive)
same,GI50,[12],> 100 µM (inactive)
same,GI50,[13],> 100 µM (inactive)
same,GI50,[14],> 100 µM (inactive)
same,GI50,[15],> 100 µM (inactive)
same,GI50,[16],> 100 µM
same,GI50,[17],> 100 µM (inactive)
same,GI50,[18],> 100 µM (inactive)
same,GI50,[19],> 100 µM (inactive)
same,GI50,[20],> 100 µM (inactive)
same,GI50,[21],> 100 µM (inactive)
same,GI50,[22],> 100 µM (inactive)
same,GI50,[23],> 100 µM (inactive)
same,GI50,[24],> 100 µM (inactive)
same,GI50,[25],> 100 µM (inactive)
same,GI50,[26],> 100 µM (inactive)
same,GI50,[27],> 100 µM (inactive)
same,GI50,[28],> 100 µM (inactive)
same,GI50,[29],> 100 µM (inactive)
same,GI50,[30],> 100 µM (inactive)
same,GI50,[31],> 100 µM (inactive)
same,GI50,[32],> 100 µM (inactive)
same,GI50,[33],> 100 µM (inactive)
same,GI50,[34],> 100 µM (inactive)
same,GI50,[35],> 100 µM (inactive)
same,GI50,[36],> 100 µM (inactive)
same,GI50,[37],> 100 µM (inactive)
same,GI50,[38],> 100 µM (inactive)
same,GI50,[39],> 100 µM (inactive)
same,GI50,[40],42 µM (inactive)
same,GI50,[41],> 100 µM (inactive)
same,GI50,[42],> 100 µM (inactive)
same,GI50,[43],> 100 µM (inactive)
same,GI50,[44],> 100 µM (inactive)
same,GI50,[45],> 100 µM (inactive)
same,GI50,[46],> 100 µM (inactive)
same,GI50,[47],> 100 µM (inactive)
same,GI50,[48],> 100 µM (inactive)
same,GI50,[49],> 100 µM (inactive)
same,GI50,[50],> 100 µM (inactive)
same,GI50,[51],> 100 µM (inactive)
same,GI50,[52],> 100 µM (inactive)
same,GI50,[53],> 100 µM (inactive)
same,GI50,[54],> 100 µM (inactive)
same,GI50,[55],> 100 µM (inactive)
same,GI50,[56],> 100 µM (inactive)
same,GI50,[57],> 100 µM (inactive)
CN(C)CCCNc1ccc2nnn3c4ccc(OC(=O)c5ccc([N+](=O)[O-])cc5)cc4c(=O)c1c23,GI50,[2],11.7 µM (inactive)
same,GI50,[3],1.51 µM (inactive)
same,GI50,[4],4.92 µM (inactive)
same,GI50,[5],1.28 µM (inactive)
same,GI50,[6],4.67 µM (inactive)
same,GI50,[7],16.6 µM (inactive)
same,GI50,[8],10.6 µM (inactive)
same,GI50,[9],0.408 µM (active)
same,GI50,[10],2.55 µM (inactive)
same,GI50,[11],1.07 µM (active)
same,GI50,[12],2.27 µM (inactive)
same,GI50,[13],2.44 µM (inactive)
same,GI50,[14],13.7 µM (inactive)
same,GI50,[15],0.649 µM (active)
same,GI50,[16],2.72 µM
same,GI50,[17],2.32 µM (inactive)
same,GI50,[18],24.2 µM (inactive)
same,GI50,[19],9.04 µM (inactive)
same,GI50,[20],11.5 µM (inactive)
same,GI50,[21],16.4 µM (inactive)
same,GI50,[23],2.74 µM (inactive)
same,GI50,[24],9.77 µM (inactive)
same,GI50,[25],6.73 µM (inactive)
same,GI50,[26],11 µM (inactive)
same,GI50,[27],1.8 µM (inactive)
same,GI50,[28],4.58 µM (inactive)
same,GI50,[29],3.54 µM (inactive)
same,GI50,[30],1.52 µM (inactive)
same,GI50,[31],5.82 µM (inactive)
same,GI50,[32],2.9 µM (inactive)
same,GI50,[33],10.9 µM (inactive)
same,GI50,[34],5.6 µM (inactive)
same,GI50,[35],2.95 µM (inactive)
same,GI50,[36],2.47 µM (inactive)
same,GI50,[58],0.849 µM (active)
same,GI50,[37],2.26 µM (inactive)
same,GI50,[38],6.98 µM (inactive)
same,GI50,[39],0.574 µM (active)
same,GI50,[41],1.5 µM (inactive)
same,GI50,[42],5.64 µM (inactive)
same,GI50,[59],5.64 µM (inactive)
same,GI50,[43],4.09 µM (inactive)
same,GI50,[45],2.86 µM (inactive)
same,GI50,[46],8.85 µM (inactive)
same,GI50,[47],8.2 µM (inactive)
same,GI50,[48],15.9 µM (inactive)
same,GI50,[49],5.7 µM (inactive)
same,GI50,[50],18.8 µM (inactive)
same,GI50,[51],1.32 µM (inactive)
same,GI50,[52],0.467 µM (active)
same,GI50,[53],13 µM (inactive)
same,GI50,[54],5.22 µM (inactive)
same,GI50,[55],3.05 µM (inactive)
same,GI50,[56],2.61 µM (inactive)
same,GI50,[57],1.33 µM (inactive)
